Holding throughout (format): cell-based
In experiment [1] the test system is HeLa wt cells. Briefly: Transmission electron microscopy of Golgi apparatus, HeLa wt. The conditions noted are these: 24 h. The method, then: (§1) HeLa wt and HeLa GRASP55 KO cells were seeded into 10 cm dishes. […] After treatment, cells were washed with Dulbecco´s phosphate-buffered saline (DPBS, Thermo Fisher Scientific, Waltham, MA, USA, #14,190,250) and then fixed using 2.5% glutaraldehyde and 4% paraformaldehyde in 0.1 M sodium cacodylate, pH 7.4 overnight at 4 °C. Then, cells were harvested with a cell scraper and centrifuged at 4,000 × g for 5 min. Cell pellets were washed twice with 0.1 M sodium cacodylate buffer, pH 7.2, then heated to 40 °C and embedded into 3% low melting agarose. The agarose was dissolved at 40 °C in a water bath and after aspiration of the supernatant a volume of approximately 10 µL was left, which was resuspended in agarose. After centrifugation at approximately 4,000 x g for 2 min, the samples were covered with 1% OsO4 in 0.1 M sodium cacodylate buffer for 60 min at RT. After washing two times with sodium cacodylate buffer for 10 min and twice with 70% EtOH for 15 min at RT, block contrast was applied using 1% uranyl acetate/1% phosphorotungstic acid in 70% EtOH (freshly prepared and filtered) for 1 h at RT. The samples were dehydrated in a graded ethanol series (90% EtOH, 96% EtOH, 100% EtOH) and embedded in SPURR epoxy resin (Serva, Heidelberg, Germany, #21,050). After polymerization at 70 °C for 24 h, 70 nm ultrathin sections were cut using an Ultracut EM UC7 (Leica, Wetzlar, Germany). […]

Another experiment concerns HeLa GRASP55 KO cells. Briefly: Transmission electron microscopy of Golgi apparatus, HeLa GRASP55 KO. The conditions noted are these: 100 nM, 24 h, HeLa GRASP55 KO (also wt). As to the method:
as §1

Experiment [2] deals with HeLa wt cells. Briefly: Immunofluorescence of GRASP55 and LC3. The conditions noted are these: 6 h. The method, then: For immunofluorescence microscopy, HeLa cells were seeded on glass coverslips in 24-well plates. After treatment, cells were fixed in 4% paraformaldehyde for 15 min on ice, quenched with 50 mM NH4Cl for 15 min and permeabilized with 50 µg/mL digitonin (Sigma-Aldrich, St. Louis, MO, USA, #D141) for 5 min. Fixed samples were blocked with 3% BSA (Roth, Karlsruhe, Germany, #8076) for 30 min or overnight and incubated with primary antibodies diluted in 3% BSA for 2 h. Samples were then washed three times with DPBS, incubated with the appropriate secondary antibodies diluted in 3% BSA for 30 min and washed three times with DPBS. Afterwards, cells were embedded in ProLong Glass Antifade Mountant (Thermo Fisher Scientific, Waltham, MA, USA, #P36980) containing 1 µg/mL DAPI (Roth, Karlsruhe, Germany, #6335.1). Images were recorded with an Axio Observer 7 fluorescence microscope (Carl Zeiss Microscopy, Oberkochen, Germany) using a 40x/1,4 Oil DIC M27 Plan-Apochromat objective (Carl Zeiss Microscopy, Oberkochen, Germany) and an ApoTome 2 (Carl Zeiss Microscopy, Oberkochen, Germany).

For a further experiment, the target named is T1, cathepsin B (Homo sapiens, UniProt P07858).
T1 construct: host or cells: HeLa wt cells
Briefly: Cathepsin B activity assay in treated HeLa cells. The conditions noted are these: 24 h, concentration-dependent, HeLa wt. The text has this: Antibodies against β-actin (Sigma-Aldrich, St. Louis, MO, USA, #A5316, clone AC-74, 1:5000), B4GALT1 (Sigma-Aldrich, St. Louis, MO, USA, #HPA010807, 1:200), GAPDH (abcam, Cambridge, UK, #ab8245, 1:5000), GRASP55 (Proteintech, Chicago, IL, USA, #10,598–1-AP, 1:200 for IF and 1:2000 for WB), LAMP1 (Sigma-Aldrich, St. Louis, MO, USA, #L1418, 1:200), LC3B (MBL, Woburn, MA, USA, #M-152–3, 1:200 for IF and Cell Signalling Technology, Danvers, MA, USA, #2775, 1:1000 for WB), SQSTM1 (PROGEN, Heidelberg, Germany, #GP62-C, 1:1000) and TGN46 (Bio-Rad, Hercules, CA, USA, #AHP500GT, 1:200) were used. For WB, IRDye 800- or IRDye 680-conjugated secondary antibodies were purchased from LI-COR Biosciences (Lincoln, NE, USA, #926–68,077, #926–32,211 and #926–32,210). […] The cathepsin activity of treated HeLa cells was quantified using the fluorimetric Cathepsin B Activity Assay Kit (abcam, Cambridge, UK, #ab65300) according to the manufacturer´s instructions and measured with a microplate reader (SynergyMx, BioTek, Winooski, VT, USA).

With `CCCCCC1=C/C(=C/c2[nH]c(-c3ccc[nH]3)cc2OC)N=C1C` [Prodigiosin, prodigiosin], the “Golgi apparatus morphology (TEM)” value with HeLa wt cells [1] (10 nM) is “cisternae number and length decreased and cisternae were more voluminous”; with HeLa wt cells [1] (100 nM) it was “distinct swelling of the Golgi apparatus”; in the experiment with HeLa GRASP55 KO cells it was “Severe structural changes of the Golgi apparatus”. Moreover, the “co-localization of LC3 and GRASP55” value in the experiment on HeLa wt cells [2] (BafA1 10 nM) is on record as “highly significant, dose-dependent increase”. Besides, the “number of LC3 dots” value in the experiment on HeLa wt cells [2] (BafA1 10 nM) was “increased dose-dependently”. In addition, the “mean area of GRASP55 dots” value in the experiment on HeLa wt cells [2] (all concentrations, vs DMSO) is recorded as “significantly increased”. Moreover, the “cathepsin B activity” value on cathepsin B is listed as “significantly reduced”.
